Results: patent US20260125357A1, “LACTATE ENHANCING COMPOUNDS AND USES THEREOF” (GLIAPHARM SA, priority 2022, published 2026)

What was measured:
[1] = system: primary astrocytes; assay: MTT mitochondrial activity assay in primary astrocytes; assay type: cell-based, mouse; details: different concentrations, after 1.5 h or 24 h
Method: Primary cultures of cerebrocortical astrocytes were obtained from 1 to 2-day-old OF1 mouse pups (Charles River Laboratories). Briefly, cortices were isolated and minced in small pieces under a dissecting microscope. The cells were incubated for 30 min at 37° C. in a solution containing 20 U/ml papain, 1 mM L-cysteine and 10 kU/ml DNase I. After dissociation, papain activity was stopped by the addition of fetal calf serum (FCS). Single-cell suspension was then obtained by mechanical dissociation, which consisted in cells trituration in a DMEM D7777 medium supplemented with 44 mm NaHCO3, 10 ml/L antibiotic/antimycotic solution and 10% FCS. The cells were seeded at an average density of ˜10′000 cells/cm^2 on poly-D-lysine coated 96- or 12-well culture plates, depending on their use, and grown in DMEM D7777 medium supplemented with 44 mm NaHCO3, 10 ml/L antibiotic/antimycotic solution and 10% FCS at 37° C. in a humidified atmosphere containing 5% CO2/95% air. Culture medium was renewed twice a week. Cells were stimulated and harvested between DIV14 and DIV17, when confluence and cell growth were optimal.
To monitor mitochondrial activity in astrocytes, which is linked to the metabolic process of glycolysis and production of lactate, astrocytes in 96-well plates were stimulated for 24 h (37° C. 5% CO2/95% air) with the compounds of the invention ranging from 10 nM to 10 μM.
After stimulation, 5 mg/ml thiazol blue tetrazolium bromide (MTT) in D5030 medium complemented with 5 mM D-glucose and 44 mM sodium bicarbonate (pH 7.2) was added to each well, and cells were incubated for 4 h at 37° C. (5% CO2). The medium was then removed and the amount of reduced MTT, i.e formazan, solubilized in DMSO (50 μl/well) was determined using a spectrophotometer (absorbance of 570 nm).
The mitochondrial activity was monitored in MTT colorimetric assay in primary astrocytes treated with Compounds (1), (2), (3), (4) (5), (9) and (10) at different concentrations after 1.5 h (FIG. 2 A, B, D, E, F, C, H, respectively) or 24 h (FIG. 2 H, I, K, L, M, J, N, respectively).

[2] = system: neurons in astrocyte-neuron co-culture; assay: MTT mitochondrial activity in neurons from astrocyte-neuron co-cultures; assay type: cell-based, mouse; details: 10 μM, 2 hours
Method: Primary mouse neuronal cultures were obtained from 18-day OF1 mouse embryos (Charles River Laboratories). Briefly, cortices were isolated and minced in small pieces under a dissecting microscope. The cells were incubated for 30 min at 37° C. in a solution containing 20 U/ml papain, 1 mM L-cysteine and 10 kU/ml DNase I. After dissociation, papain activity was stopped by the addition of fetal calf serum (FCS). Single-cell suspension was then obtained by mechanical dissociation, which consisted in cells trituration in a Neurobasal+B-27+Glutamax medium. The cells were seeded at an average density of ˜1.5×10^5 cells/cm^2 on poly-D-lysine coated 12-well culture plates and grown in Neurobasal medium supplemented with B-27 and Glutamax at 37° C. in a humidified atmosphere containing 5% CO2/95% air. Neurons were used at DIV10. […]
Neuron pure culture or astrocyte-neuron co-cultures were treated for 2 hours with compound (2) at 10 μM in a solution composed of Neurobasal complemented with B-27 and Glutamax, as well as 0.25 mg/ml thiazol blue tetrazolium bromide (MTT). […] After stimulation, empty coverslips (neuron pure cultures) or astrocytes on coverslips (astrocyte-neuron co-cultures) were separated from neurons, medium was removed and the amount of reduced MTT, i.e formazan, solubilized in DMSO (50 μl/well) was determined using a spectrophotometer (absorbance of 570 nm).

[3] = system: GLUT1-DS transgenic mice; assay: Lactate and glucose biosensors in GLUT1-DS transgenic mice; assay type: in vivo, mouse; details: oral 10 mg/kg, vs vehicle
Text: (§1) Heterozygous transgenic mice on 129/SvJ genetic background in which glucose transporter 1 (GLUT1) has been knocked down were used (GLUT1(+/−)) (Wang et al., 2016, Human Molecular Genetics, 15(7)). GLUT1-deficiency syndrome (GLUT1-DS) is a prototypic hypometabolic diseases caused by the mutation of GLUT1 and decreased levels of glucose and lactate in the brain (Tang et al., 2019, Annals of Clinical and Translational Neurology 6(9)). Mating colonies were composed of wild-type female mice and GLUT1-DS male mice, or GLUT1-DS female mice and wild-type male mice. F1 pups were genotyped after ear punching at weaning using PCR to determine genotype. Mice of 2 to 3 months of age were used.
Cerebral extracellular levels of lactate and glucose were monitored in vivo in GLUT1-DS transgenic male mice and wild-type (WT) male littermates using lactate and glucose biosensors (Pinnacle Technology), according to the manufacturer's instructions. […] After surgery, mice were monitored closely and received analgesic treatment for at least 4 days. After mice had fully recovered from surgery, compounds of the invention or vehicle were administered per os as previously described and cerebral levels of extracellular lactate or glucose were dynamically recorded for 6 hours using lactate or glucose biosensors, respectively. […]

[4] = system: GLUT1-DS transgenic mice; assay: Rotarod motor function in GLUT1-DS transgenic mice; assay type: in vivo, mouse; details: single administration 10 mg/kg, 20 min before rotarod
Text: as §1
Motor function was measured in wild-type (WT) and GLUT 1-DS transgenic mice in the rotarod after single administration of Veh. or compound (1) or (2) (10 mg/kg) 20 min before rotarod. Rotarod testing consisted in placing the mouse on an accelerating rotating rod (4 to 40 r.p.m.) during a maximum of 300 seconds. 3 consecutive sessions with 15 min apart were performed. Latency for the mouse to fall from the rod was recorded and the maximal latency over the 3 trials was used as a measure of motor function.

COc1cc2ccnc(Nc3ccc(S(C)(=O)=O)cc3)c2cc1OC [Compound 2, 6,7-dimethoxy-N-(4-methylsulfonylphenyl)isoquinolin-1-amine]
mitochondrial activity (MTT colorimetric assay) [1]: none of the selected compounds had direct effect on mitochondrial activity
mitochondrial activity of neurons (MTT) [2]: enhances mitochondrial activity of neurons in astrocyte-neuron co-culture
extracellular glucose levels in the brain [3]: significantly increases
extracellular lactate levels in the brain [3]: significantly increases extracellular lactate
rotarod performance (latency to fall) [4]: increased rotarod performance
